Assay results from patent publication US8415497B2, “N-halogenated amino compounds and derivatives” (Novabay Pharmaceuticals, Inc., priority 2006, dated 2013).
Marks after values point to notes of the source that are not given here.

Assays:
Type in all cases: cell-based
[1] = Concentration dependence of antimicrobial activity; details: 0.9% saline at pH 3.5
From the text: (§1) The results of our discovery provide support for antimicrobial activity of 3-(4-chlorophenyl)-2-(dichloroamino)-2-methylpropane-1-sulfonic acid in 0.9% saline at pH 3.5. […] In contrast, cell toxicity is seen at a 1000-fold higher range in the mM range.

cells = assay: Cell toxicity, XTT assay
From the text: as §1

[2] = system: Staphylococcus aureus (MCC 91731); assay: Antimicrobial activity, minimum biocidal concentration; details: S. aureus MCC 91731 (*), 1 h
Procedure: (§2) To determine antimicrobial activity, we use Escherichia coli (ATCC 25922), Staphylococcus aureus (ATCC 29213), Pseudomonas aeruginosa (ATCC 27853), and Candida albicans (ATCC 10231) in primary screening. In addition, we use Staphylococcus aureus (MCC 91731), Pseudomonas aeruginosa (MCC 4438), and Candida albicans (MCC 50319), provided by Alcon Laboratories, Fort Worth, Tex. The microbial cultures are diluted in sterile saline pH 4 to prepare inocula. […] Bacterial plating on Petri dishes (Tryptic Soy agar or Saboraud's Dextrose agar) is performed immediately after the designated exposure after neutralization of the test article dilutions in Dey-Engley Broth. Plates are incubated at 37° C., and the numbers of bacteria are counted by direct colony count to quantitate the surviving bacteria as CFU/mL. Positive growth controls are made with sterile 0.9% saline. All compounds are tested three times. The results are tabulated to show the comparison of antimicrobial effectiveness range of the compounds.

[3] = system: Pseudomonas aeruginosa (MCC 4438); assay: as above; details: P. aeruginosa MCC 4438 (#), 1 h
Procedure: as §2, with “The microbial cultures are diluted in sterile saline pH 4 to prepare inocula.” left out

[4] = system: Candida albicans (MCC 50319); assay: as above; details: C. albicans MCC 50319 (+), 1 h
Procedure: as §2, with “The microbial cultures are diluted in sterile saline pH 4 to prepare inocula.” left out

[5] = system: mouse fibroblast cells (ATCC CCL-1, L929); assay: Cytotoxicity, WST-8 colorimetric assay; details: 60 min exposure
Procedure: Cytotoxicity is assessed by a colorimetric assay system using the Dojindo™ cell counting kit containing 2-(2-methoxy-4-nitrophenyl)-3-(4-nitrophenyl)—S—(2,4-disulfophenyl)-2H-tetrazolium, monosodium salt (WST-8). In this assay, the WST-8 reagent is bioreduced by cellular dehydrogenases to a formazan product that is highly soluble in tissue culture medium. The orange formazan, which is produced only by live cells, is a direct measure of cell viability and can be read spectrophotometrically (for example, evaluation of a soluble tetrazolium/formazan assay for cell growth and drug sensitivity in culture using human and other tumor cell lines is described by Scudiero D A, Shoemaker R A H, Paul K D, Monks A, Tierney S, Nofziger T H, Currens M J, Seniff D, Boyd M R. Cancer Res. 1988 Sep. 1; 48(17):4827-33). Similar approaches for determining the cell viability are known in the art.
In a standard assay, mouse fibroblast cells (ATCC CCL-1, L929), are cultured in Minimum Essential Medium, α-medium supplemented with 10% heat inactivated fetal bovine serum, L-glutamine, penicillin and streptomycin. Cells are trypsinized and counted under the microscope and seeded at 1.5×10^4 total cells per 100 μL per well of a flat-bottom 96-well plate in order to achieve ˜80% confluence after overnight incubation at 37° C. On the day of the assay, the tissue culture medium is removed and replaced with 30 μL of fresh medium.
Test articles are prepared as 2-fold serial dilutions and 170 μL, of each dilution is added into each of 4-wells (total volume per well=200 μL). The test plate is then returned to the 37° C. incubator for 60 min. Immediately after the exposed time, test article from each well is replaced with 200 μL of fresh media. Plates are incubated at 37° C. for 18-20 hours. The following day growth medium is replaced with 100 μL/well of fresh medium containing 10/100 μL WST-8 reagent. Cells are incubated under growth conditions (5% CO2 at 37° C. humidified incubator), protected from light, until color development is achieved (usually 1-4 hours). Absorbance is read at 450 nm with reference wavelength at 750 nm using Molecular Device SpectraMax M5 plate reader. Untreated or vehicle only treated cells receiving WST-8 reagent serve as positive cell proliferation controls.
The CT50 value for each compound was calculated from the absorbance values (A450-750) and is defined as the concentration of test article that results in survival of 50% of the cells following treatment. The absorbance A450-750 from each well of untreated cells and from each well within the dilution series was measured. To calculate the CT50 for each compound, all compound concentrations were first log-transformed using GraphPad Prism4 (ver 4.03) software. Next, a non-linear regression (curve fit) analysis was performed on all the absorbance data measured from the dilution series, including the absorbance data obtained from wells of the untreated control cells. For each dilution within the dilution series, an average A450-750 was calculated from the four replicate wells. The average A450-750 data were plotted on a y-axis against the log-transformed compound concentration on the x-axis, and the CT50 value calculated from the resulting best-fit curve.

[6] = system: Escherichia coli (ATCC 25922); assay: Antimicrobial activity, minimum bactericidal/biocidal concentration; details: E. coli 25922, pH 4 (Sal), 1 h
Procedure: (§3) To determine antimicrobial activity, we use Escherichia coli (ATCC 25922), Staphylococcus aureus (ATCC 29213), Pseudomonas aeruginosa (ATCC 27853), and Candida albicans (ATCC 10231) in primary screening. In addition, we use Staphylococcus aureus (MCC 91731), Pseudomonas aeruginosa (MCC 4438), and Candida albicans (MCC 50319), provided by Alcon Laboratories, Fort Worth, Tex. The microbial cultures are diluted in sterile saline pH 4 to prepare inocula. Test compounds are titrated by stepwise two-fold dilutions in sterile saline pH 4, 1.0×10^5 to 1.0×10^6 Colony Forming Units (CFU)/mL bacteriamicrobe is added to each tube, mixed by gentle vortexing, and then incubated at room temperature for 1 h. Bacterial plating on Petri dishes (Tryptic Soy agar or Saboraud's Dextrose agar) is performed immediately after the designated exposure after neutralization of the test article dilutions in Dey-Engley Broth. Plates are incubated at 37° C., and the numbers of bacteria are counted by direct colony count to quantitate the surviving bacteria as CFU/mL. Positive growth controls are made with sterile 0.9% saline. All compounds are tested three times. The results are tabulated to show the comparison of antimicrobial effectiveness range of the compounds.

[7] = system: Staphylococcus aureus (ATCC 29213); assay: as above; details: S. aureus 29213, pH 4 (Sal), 1 h
Procedure: as §3

[8] = system: Candida albicans (ATCC 10231); assay: Antimicrobial activity, minimum biocidal concentration; details: C. albicans 10231, pH 4 (Sal), 1 h
Procedure: as §3

Compound	Minimum Biocidal Concentration (MBC) (≧99.9% kill) ([2]; pH 4 (Sal))	Minimum Biocidal Concentration (MBC) (≧99.9% kill) ([3]; pH 4 (Sal))	CT50 (concentration that results in survival of 50% of the cells) ([5]; pH 4 (Sal))	Minimum Biocidal Concentration (MBC) (≧99.9% kill) [6]	Minimum Biocidal Concentration (MBC) (≧99.9% kill) [7]	Minimum Biocidal Concentration (MBC) (≧99.9% kill) [8]	other results
CC(Cc1ccc(Cl)cc1)(CS(=O)(=O)O)N(Cl)Cl (stereo not shown) [Compound 570, 3-(4-chlorophenyl)-2-(dichloroamino)-2-methylpropane-1-sulfonic acid]	–	–	–	–	–	–	antimicrobial activity [1]: considerable in a μM range; cell toxicity range relative to antimicrobial range (cells): 1000 fold; tolerance of treatment, cell proliferation versus untreated control cells (cells; XTT assay): able to tolerate the treatment and be able to go through normal cell proliferation cycles
O=S(=O)(O)CC1(N(Cl)Cl)CCCCCC1 [Compound 601, (1-(Dichloroamino)cycloheptyl)methanesulfonic acid]	0.25* μg/mL	0.5# μg/mL	–	–	–	–	–
CC1(N(Cl)Cl)CCCCC1S(=O)(=O)O (stereo not shown) [Compound 611, 2-(Dichloroamino)-2-methylcyclohexane-1-sulfonic acid]	1* μg/mL	1# μg/mL	0.25 mM	–	–	–	Minimum Biocidal Concentration (MBC) (≧99.9% kill) ([2]; pH 7 (PBS)): 64* μg/mL; Minimum Biocidal Concentration (MBC) (≧99.9% kill) ([4]; pH 4 (Sal)): 0.5+ μg/mL; Minimum Biocidal Concentration (MBC) (≧99.9% kill) ([4]; pH 7 (PBS)): 64+ μg/mL; Minimum Biocidal Concentration (MBC) (≧99.9% kill) ([3]; pH 7 (PBS)): 32# μg/mL; CT50 (concentration that results in survival of 50% of the cells) ([5]; pH 7 (PBS)): 4.6 mM
CC(C)(COC(=O)CCS(=O)(=O)O)N(Cl)Cl [Compound 614, 3-(2-(Dichloroamino)-2-methylpropoxy)-3-oxopropane-1-sulfonic acid]	1* μg/mL	4# μg/mL	0.43 mM	–	–	–	Minimum Biocidal Concentration (MBC) (≧99.9% kill) ([2]; pH 7 (PBS)): 128* μg/mL; Minimum Biocidal Concentration (MBC) (≧99.9% kill) ([4]; pH 4 (Sal)): 4+ μg/mL; Minimum Biocidal Concentration (MBC) (≧99.9% kill) ([4]; pH 7 (PBS)): 512+ μg/mL; Minimum Biocidal Concentration (MBC) (≧99.9% kill) ([3]; pH 7 (PBS)): 256# μg/mL; CT50 (concentration that results in survival of 50% of the cells) ([5]; pH 7 (PBS)): 4.6 mM
CC(C)(CS(=O)(=O)O)C(=O)OCC(C)(C)N(Cl)Cl [Compound 625, 3-(2-(Dichloroamino)-2-methylpropoxy)-2,2-dimethyl-3-oxopropane-1-sulfonic acid]	–	–	2.6 mM	4 µg/mL	8 µg/mL	16 µg/mL	–
CNS(=O)(=O)CC(C)(C)N(Cl)Cl [Compound 626, 2-(Dichloroamino)-N,2-dimethylpropane-1-sulfonamide]	–	–	–	4 µg/mL	0.5 µg/mL	8 µg/mL	–
CC(=O)NS(=O)(=O)CC(C)(C)N(Cl)Cl [Compound 627, N-(2-(Dichloroamino)-2-methylpropylsulfonyl)acetamide]	–	–	–	2 µg/mL	1 µg/mL	64 µg/mL	–
CC(C)(CC(=O)OCCS(=O)(=O)O)N(Cl)Cl [Compound 628, 2-(3-(Dichloroamino)-3-methylbutanoyloxy)ethanesulfonic acid]	–	–	–	2 µg/mL	2 µg/mL	64 µg/mL	–
CC(C)(CS(=O)(=O)CCS(=O)(=O)O)N(Cl)Cl [Compound 630, 2-(2-(Dichloroamino)-2-methylpropylsulfonyl)ethanesulfonic acid]	–	–	–	4 µg/mL	8 µg/mL	64 µg/mL	–
CC(=O)N1CCC(CS(=O)(=O)O)(N(Cl)Cl)CC1 [Compound 637, (1-Acetyl-4-(dichloroamino)piperidin-4-yl)methanesulfonic acid]	–	–	–	16 µg/mL	4 µg/mL	128 µg/mL	–
